From ChEMBL document CHEMBL3232785, “Basic quinolinonyl diketo acid derivatives as inhibitors of HIV integrase and their activity against RNase H function of reverse transcriptase” (J Med Chem, 2014)
Active and inactive are the calls of the source. The rule behind the calls is not given here.

Columns and labels:
[1] = tested on: Human immunodeficiency virus 1; assay: Antiviral activity against HIV1 3B infected in human HeLa cells expressing CD4-LTR-beta-gal assessed as inhibition of viral replication after 3 days by reporter gene assay; assay type: functional, organism-based; settings: Human immunodeficiency virus 1, 3B, 72 h
[2] = molecular target: T1, Human immunodeficiency virus type 1 integrase (Human immunodeficiency virus 1, UniProt Q7ZJM1); assay: Inhibition of HIV1 integrase 3'-processing activity by gel-based assays
[3] = molecular target: T1, Human immunodeficiency virus type 1 integrase; assay: Inhibition of HIV1 integrase strand transfer activity by gel-based assay
[4] = molecular target: Human immunodeficiency virus type 1 reverse transcriptase (Human immunodeficiency virus 1) (UniProt Q72547); assay: Inhibition of HIV1 polymerase function of reverse transcriptase up to 40 uM
[5] = molecular target: Human immunodeficiency virus type 1 reverse transcriptase (Human immunodeficiency virus 1, UniProt Q72547); assay: Inhibition of HIV1 RNase H function of recombinant reverse transcriptase using an 18-nt 3'-fluorescein-labeled RNA annealed to complementary 18-nt 5'-dabsyl-labeled DNA as substrate after 10 mins by fluorescence spectrometer analysis
HeLa = assay: Cytotoxicity against human HeLa cells expressing CD4-LTR-beta-gal after 24 hrs by ATPlite assay; assay type: cell-based
in vitro = settings: human, HeLa cells expressing CD4-LTR-beta-gal
Description: Selectivity index, ratio of CC50 for human HeLa cells expressing CD4-LTR-beta-gal to EC50 for HIV1 3B

T1 sequence (Q7ZJM1 whole entry): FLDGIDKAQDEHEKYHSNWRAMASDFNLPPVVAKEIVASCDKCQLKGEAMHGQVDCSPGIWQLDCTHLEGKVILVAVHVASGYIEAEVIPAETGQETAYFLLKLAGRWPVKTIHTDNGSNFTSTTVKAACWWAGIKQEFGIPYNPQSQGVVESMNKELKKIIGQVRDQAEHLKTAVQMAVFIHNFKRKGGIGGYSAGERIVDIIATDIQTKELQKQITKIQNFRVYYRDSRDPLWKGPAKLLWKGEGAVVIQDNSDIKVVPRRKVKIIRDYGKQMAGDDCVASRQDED

EC50 [1] [µM]	IC50 [2] [µM]	IC50 [3] [µM]	SMILES	inhibition [4]	IC50 [5] [µM]	CC50 (HeLa) [µM]	selectivity ratio (in vitro)
> 50	41	2.9	CCOC(=O)/C(O)=C/C(=O)c1cn(Cc2ccc(F)cc2)c2cc(N(C)C)ccc2c1=O	–	–	–	–
> 50	–	–	O=C(O)/C(O)=C/C(=O)c1cn(Cc2ccc(F)cc2)c2cc(N3CCNCC3)ccc2c1=O	–	–	–	–
–	–	–	CC(=O)N1CCN(c2ccc3c(=O)c(C(=O)/C=C(\O)C(=O)O)cn(Cc4ccc(F)cc4)c3c2)CC1	–	–	> 50	–
> 50	30	0.36	O=C(O)/C(O)=C/C(=O)c1cn(Cc2ccc(F)cc2)c2cc(N3CCSCC3)ccc2c1=O	–	–	–	–
> 50	23	0.21	CCN1CCN(c2ccc3c(=O)c(C(=O)/C=C(\O)C(=O)O)cn(Cc4ccc(F)cc4)c3c2)CC1	–	–	–	–
–	–	–	CCOC(=O)/C(O)=C/C(=O)c1cn(Cc2ccc(F)cc2)c2cc(N3CCN(CC)CC3)ccc2c1=O	–	–	> 50	–
> 50	17	0.17	CCOC(=O)/C(O)=C/C(=O)c1cn(Cc2ccc(F)cc2)c2cc(N3CCN(C(C)=O)CC3)ccc2c1=O	–	–	–	–
13.2	102	1.3	CCOC(=O)/C(O)=C/C(=O)c1cn(Cc2ccc(F)cc2)c2cc(N3CCN(CCCCl)CC3)ccc2c1=O	–	–	> 50	> 3.7
–	–	–	Cc1nnc(C(=O)NC(C)(C)c2nc(C(=O)NCc3ccc(F)cc3)c(O)c(=O)n2C)o1	–	–	> 50	–
–	–	–	CCOC(=O)/C(O)=C/C(=O)c1cn(Cc2ccc(F)cc2)c2cc(N3CCN(C)CC3)ccc2c1=O	–	–	> 50	–
> 50	–	–	CN(C)c1ccc2c(=O)c(C(=O)/C=C(\O)C(=O)O)cn(Cc3ccc(F)cc3)c2c1	–	–	–	–
–	–	–	CCOC(=O)/C(O)=C/C(=O)c1cn(Cc2ccc(F)cc2)c2cc(N3CCCC3)ccc2c1=O	–	–	> 50	–
20.9	> 333	24	CCOC(=O)/C(O)=C/C(=O)c1cn(Cc2ccc(F)cc2)c2cc(N3CCNCC3)ccc2c1=O	–	–	> 50	> 2.4
> 50	8.5	0.1	CN1CCN(c2ccc3c(=O)c(C(=O)/C=C(\O)C(=O)O)cn(Cc4ccc(F)cc4)c3c2)CC1	–	–	–	–
16.2	> 111	2.1	CCOC(=O)/C(O)=C/C(=O)c1cn(Cc2ccc(F)cc2)c2cc(N3CCOCC3)ccc2c1=O	–	–	> 50	> 3
–	–	–	O=C(O)/C(O)=C/C(=O)c1cn(Cc2ccc(F)cc2)c2cc(N3CCCC3)ccc2c1=O	inactive	5.1	> 50	–
0.0142	–	–	COc1cc2c(cc1Cc1cccc(Cl)c1F)c(=O)c(C(=O)O)cn2[C@H](CO)C(C)C	–	–	> 50	–

SMILES	EC50 [1] [µM]	IC50 [2] [µM]	IC50 [3] [µM]	inhibition [4]	IC50 [5] [µM]	CC50 (HeLa) [µM]	selectivity ratio (in vitro)
O=C(O)/C(O)=C/C(=O)c1cn(Cc2ccc(F)cc2)c2cc(N3CCN(CCCCl)CC3)ccc2c1=O	> 50	4.6	0.05	inactive	5.7	–	–
O=C(O)/C(O)=C/C(=O)c1cn(Cc2ccc(F)cc2)c2cc(N3CCOCC3)ccc2c1=O	26.3	13	0.08	inactive	6.8	> 50	> 1.9
